Values of other authors in Sander's compilation of Henry's law constants (doi:10.1080/00022470.1982.10465374).

Assay: Henry solubility constant Hcp at 298.15 K (mol/(m3 Pa))
Settings: reference: Shen (1982); cited value

SMILES | Henry solubility constant Hcp
CC(Cl)(Cl)Cl [1,1,1-trichloroethane] | 0.002
C=C(Cl)Cl [1,1-dichloroethene] | 0.00066
CC(Cl)CCl (centres undefined) [1,2-dichloropropane] | 0.0035
Clc1cccc(Cl)c1 [1,3-dichlorobenzene] | 0.0038
ClC=CCCl [1,3-dichloropropene] | 0.0028
Clc1ccc(Cl)cc1 [1,4-dichlorobenzene] | 0.0036
c1ccc2c(c1)Cc1ccccc1-2 [2,3-benzindene] | 0.084
c1cc2c3c(cccc3c1)CC2 [acenaphthene] | 0.041
C1=Cc2cccc3cccc1c23 [acenaphthylene] | 0.087
ClC1=C(Cl)[C@]2(Cl)[C@H]3[C@H]([C@@H]4C=C[C@H]3C4)[C@@]1(Cl)C2(Cl)Cl [aldrin] | 0.02
c1ccccc1 [benzene] | 0.0018
ClC(Cl)Br [bromodichloromethane] | 0.0047
ClC1=C(Cl)[C@]2(Cl)C3C(Cl)C(Cl)CC3[C@@]1(Cl)C2(Cl)Cl (some centres undefined) [chlordane] | 0.21
Clc1ccccc1 [chlorobenzene] | 0.0025
ClC(Br)Br [dibromochloromethane] | 0.013
ClCCl [dichloromethane] | 0.0031
ClC1=C(Cl)[C@]2(Cl)[C@@H]3[C@@H]4C[C@@H]([C@H]5O[C@@H]45)[C@@H]3[C@@]1(Cl)C2(Cl)Cl [dieldrin] | 0.17
CCc1ccccc1 [ethylbenzene] | 0.0015
ClC1=C(Cl)C2(Cl)C3C(Cl)C=CC3C1(Cl)C2(Cl)Cl (centres undefined) [heptachlor] | 0.0067
ClC1=C(Cl)C2(Cl)C3C4OC4C(Cl)C3C1(Cl)C2(Cl)Cl (centres undefined) [heptachlorepoxide] | 0.31
ClC(Cl)=C(Cl)C(Cl)=C(Cl)Cl [hexachlorobutadiene] | 0.00096
ClC1=C(Cl)C(Cl)(Cl)C(Cl)=C1Cl [hexachlorocyclopentadiene] | 0.0006
ClC(Cl)(Cl)C(Cl)(Cl)Cl [hexachloroethane] | 0.001
Cc1ccccc1 [methylbenzene] | 0.0017
O=[N+]([O-])c1ccccc1 [nitrobenzene] | 0.41
ClC(Cl)=C(Cl)Cl [tetrachloroethene] | 0.00034
ClC(Cl)(Cl)Cl [tetrachloromethane] | 0.00033
BrC(Br)Br [tribromomethane] | 0.019
ClC=C(Cl)Cl [trichloroethene] | 0.00084
